Values joined by “and” are separate entries in the source; they are usually repeats but may differ in a detail not shown here. Equal values may be shown once. Toxic doses and inconclusive results are not listed. Cut-off read from the data, not from the text of the source: active = T/C of 150% or more; inactive = T/C below 125%.
System: L1210 leukemia ip in BDF1 mice, survival T/C
Assay: NCI In Vivo Anticancer Drug Screen. Data for tumor model L1210 Leukemia (intraperitoneal) in B6D2F1 (BDF1) mice
Conditions: endpoint: mean survival time, higher = longer survival
How it was run: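 Antitumor effect is assessed in tumor-bearing animals. Survival in the compound arm is compared with a vehicle-dosed control arm and expressed as their quotient.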

[1] = dose: 100.0 mg/kg/injection, schedule: Q01DX009 (ip), vehicle: saline with Tween-80
[2] = dose: 100.0 mg/kg/injection, schedule: Q04DX003 (ip), vehicle: saline with Tween-80
[3] = dose: 200.0 mg/kg/injection, schedule: Q01DX009 (ip), vehicle: saline with Tween-80
[4] = dose: 200.0 mg/kg/injection, schedule: Q04DX003 (ip), vehicle: saline with Tween-80
[5] = dose: 400.0 mg/kg/injection, schedule: Q04DX003 (ip), vehicle: saline with Tween-80
[6] = dose: 100.0 mg/kg/injection, schedule: Q04DX002 (ip), vehicle: Klucel (hydroxypropylcellulose) (HPC)
[7] = dose: 200.0 mg/kg/injection, schedule: Q04DX002 (ip), vehicle: Klucel (hydroxypropylcellulose) (HPC)
[8] = dose: 400.0 mg/kg/injection, schedule: Q04DX002 (ip), vehicle: Klucel (hydroxypropylcellulose) (HPC)
[9] = dose: 100.0 mg/kg/injection, schedule: Q04DX003 (ip), vehicle: Klucel (hydroxypropylcellulose) (HPC)
[10] = dose: 200.0 mg/kg/injection, schedule: Q04DX003 (ip), vehicle: Klucel (hydroxypropylcellulose) (HPC)
[11] = dose: 400.0 mg/kg/injection, schedule: Q04DX003 (ip), vehicle: Klucel (hydroxypropylcellulose) (HPC)
[12] = dose: 100.0 mg/kg/injection, schedule: Q01DX001 (ip), vehicle: saline
[13] = dose: 200.0 mg/kg/injection, schedule: Q01DX001 (ip), vehicle: saline
[14] = dose: 400.0 mg/kg/injection, schedule: Q01DX001 (ip), vehicle: saline
[15] = dose: 100.0 mg/kg/injection, schedule: Q01DX001 (ip), vehicle: carboxymethylcellulose (CMC)
[16] = dose: 200.0 mg/kg/injection, schedule: Q01DX001 (ip), vehicle: carboxymethylcellulose (CMC)
[17] = dose: 400.0 mg/kg/injection, schedule: Q01DX001 (ip), vehicle: carboxymethylcellulose (CMC)
[18] = dose: 100.0 mg/kg/injection, schedule: Q01DX009 (ip), vehicle: saline
[19] = dose: 100.0 mg/kg/injection, schedule: Q01DX001 (ip), vehicle: saline with Tween-80
[20] = dose: 200.0 mg/kg/injection, schedule: Q01DX001 (ip), vehicle: saline with Tween-80
[21] = dose: 400.0 mg/kg/injection, schedule: Q01DX001 (ip), vehicle: saline with Tween-80
[22] = dose: 50.0 mg/kg/injection, schedule: Q01DX001 (ip), vehicle: saline
[23] = dose: 100.0 mg/kg/injection, schedule: Q04DX002 (ip), vehicle: saline
[24] = dose: 200.0 mg/kg/injection, schedule: Q04DX002 (ip), vehicle: saline

Measured: T/C

S=C(S)N1CCC(CC2CCN(C(=S)S)CC2)CC1
inactive: [1] 98 % of control | [2] 102 % of control | [3] 93 % of control | [4] 96 % of control | [5] 86 % of control

Cc1ccc2c(c1C)-c1c(ccc(C)c1C)C(=O)C2=O
inactive: dose: 50.0 mg/kg/injection, schedule: Q04DX002 (ip), vehicle: Klucel (hydroxypropylcellulose) (HPC) 91 % of control | [6] 102 % of control and 113 % of control | [7] 94 % of control | [8] 94 % of control and 100 % of control

CC(=O)O[C@H]1CC[C@@]2(C)C(=CC[C@H]3[C@@H]4CC[C@H](O)[C@@]4(C)CC[C@@H]32)C1
inactive: [9] 103 % of control | [10] 103 % of control | [11] 96 % of control

CC1C=CC(C(N)C(=O)O)O1 (stereo not given)
inactive: [12] 103 % of control | [13] 95 % of control | [14] 101 % of control

Nc1c(Br)cc(Br)c2[nH]c(=O)c3ccccc3c12
inactive: [15] 104 % of control | [16] 96 % of control | [17] 98 % of control

CC(C)C(NC(=O)OC(C)(C)C)C(=O)O (stereo not given)
inactive: dose: 12.5 mg/kg/injection, schedule: Q01DX009 (ip), vehicle: alcohol 106 % of control | dose: 25.0 mg/kg/injection, schedule: Q01DX009 (ip), vehicle: alcohol 109 % of control | dose: 25.0 mg/kg/injection, schedule: Q04DX003 (ip), vehicle: other 107 % of control | dose: 50.0 mg/kg/injection, schedule: Q01DX009 (ip), vehicle: alcohol 96 % of control | dose: 50.0 mg/kg/injection, schedule: Q04DX003 (ip), vehicle: other 93 % of control and 108 % of control | [12] 103 % of control | dose: 100.0 mg/kg/injection, schedule: Q01DX009 (ip), vehicle: alcohol 104 % of control | dose: 100.0 mg/kg/injection, schedule: Q04DX003 (ip), vehicle: other 94 % of control and 96 % of control | dose: 200.0 mg/kg/injection, schedule: Q01DX009 (ip), vehicle: alcohol 107 % of control | dose: 200.0 mg/kg/injection, schedule: Q04DX003 (ip), vehicle: other 101 % of control and 103 % of control

CC(C)(C)S(=O)(=O)CCS(=O)(=O)C(C)(C)C
inactive: [18] 100 % of control | [6] 104 % of control | dose: 100.0 mg/kg/injection, schedule: Q04DX002 (ip), vehicle: saline with Tween-80 97 % of control | dose: 200.0 mg/kg/injection, schedule: Q01DX009 (ip), vehicle: saline 100 % of control | [7] 97 % of control | dose: 200.0 mg/kg/injection, schedule: Q04DX002 (ip), vehicle: saline with Tween-80 94 % of control | dose: 400.0 mg/kg/injection, schedule: Q01DX009 (ip), vehicle: saline 107 % of control | [8] 104 % of control | dose: 400.0 mg/kg/injection, schedule: Q04DX002 (ip), vehicle: saline with Tween-80 90 % of control

C=CC(=O)Nc1cccc(OC(=O)NC)c1
inactive: [19] 99 % of control | [20] 100 % of control | [21] 92 % of control

CN(C)CCC(=O)c1ccc(Cl)cc1
inactive: [22] 101 % of control | dose: 50.0 mg/kg/injection, schedule: Q01DX009 (ip), vehicle: saline 95 % of control and 117 % of control | [12] 101 % of control | [18] 99 % of control and 103 % of control | [23] 95 % of control and 103 % of control | [13] 101 % of control | [24] 93 % of control and 90 % of control

c1ccc2c(c1)NC(SSC1Nc3ccccc3S1)S2 (stereo not given)
inactive: [12] 94 % of control | [13] 88 % of control | [14] 94 % of control

CN(C)c1ccc(C=C(c2ccc(N)cc2)c2ccc(N)cc2)cc1
inactive: [2] 93 % of control | [4] 96 % of control | [5] 96 % of control

CCOc1cc(F)cc([N+](=O)[O-])c1
inactive: [15] 97 % of control | [16] 108 % of control | [17] 89 % of control

O=C(O)C1=C(C(=O)O)C2CCC1C2
inactive: [2] 100 % of control | [4] 88 % of control

CCCCCCc1cc[n+](C(=O)c2ccc([N+](=O)[O-])cc2)cc1
inactive: [2] 102 % of control | [4] 104 % of control | [5] 94 % of control

CC(=O)Nc1ncnc2c1ncn2Cc1ccccc1
inactive: [2] 99 % of control | [4] 93 % of control

COc1ccc2c(c1)-c1c(ccc(OC)c1OC(=O)C(=O)c1ccccc1)CC(Cl)N(C)CC2.[O]=[Cr](=[O])([OH])[OH] (stereo not given)
inactive: dose: 100.0 mg/kg/injection, schedule: Q04DX003 (ip), vehicle: saline 89 % of control | dose: 200.0 mg/kg/injection, schedule: Q04DX003 (ip), vehicle: saline 89 % of control | dose: 400.0 mg/kg/injection, schedule: Q04DX003 (ip), vehicle: saline 90 % of control

Cc1ccc(Cl)cc1NC(=O)Nc1ccc(C)c(NC(=O)Nc2cc(Cl)ccc2C)c1
inactive: [1] 87 % of control | [2] 88 % of control | [3] 92 % of control | [4] 86 % of control | dose: 400.0 mg/kg/injection, schedule: Q01DX009 (ip), vehicle: saline with Tween-80 98 % of control | [5] 90 % of control

Cc1cccc2c(Br)cccc12
inactive: [15] 97 % of control | [16] 95 % of control | [17] 93 % of control

Cc1nc(N(C)C)[nH]c(=O)c1CCCNc1ccccc1
inactive: [19] 111 % of control | [20] 96 % of control | [21] 100 % of control

CS(=O)CC(O)(c1ccccc1)c1ccccc1 (stereo not given)
inactive: [22] 102 % of control | [12] 101 % of control | [13] 98 % of control | [14] 97 % of control

O=C1C=C(O)C2=C(CCCC2)C1=O
inactive: dose: 100.0 mg/kg/injection, schedule: Q01DX001 (ip), vehicle: water 96 % of control

CC(C)CCOC(=O)C1(C)OC1c1ccccc1 (stereo not given)
inactive: [23] 101 % of control | [24] 97 % of control | dose: 400.0 mg/kg/injection, schedule: Q04DX002 (ip), vehicle: saline 93 % of control

O=[N+]([O-])c1ccc(/C=C\c2ccccc2)cc1
inactive: dose: 100.0 mg/kg/injection, schedule: Q01DX009 (ip), vehicle: Klucel (hydroxypropylcellulose) (HPC) 95 % of control | [9] 98 % of control | dose: 200.0 mg/kg/injection, schedule: Q01DX009 (ip), vehicle: Klucel (hydroxypropylcellulose) (HPC) 97 % of control | [10] 98 % of control | dose: 400.0 mg/kg/injection, schedule: Q01DX009 (ip), vehicle: Klucel (hydroxypropylcellulose) (HPC) 96 % of control | [11] 96 % of control

Nc1nc(-c2ccc([N+](=O)[O-])cc2)cc(=O)[nH]1
inactive: [19] 98 % of control | [20] 93 % of control | [21] 92 % of control
